In patent US10227551B2, “Sulfur-containing compounds as solvents” (Novus International, Inc., priority 2015, dated 2019):

Assays:
Aqueous solubility = type: physicochemical
Description: Table 5 presents the results.

[1] = Solvent properties (density, boiling point, flash point, freezing point, viscosity); type: physicochemical
Description: Isopropyl 2-hydroxy-4-(methylsulfinyl)butanoate (also called iC3SO) has the following properties.
Green or regular hard surface cleaner or degreaser formulations containing commercial surfactants or a mixture (i.e., monomers, dimers, and short oligomers) of octyl 2-hydroxy-4-(methylsulfinyl)butanoate (also called “C8SO”) were formulated, as shown in Table 2 below. The density of C8SO is 1.08 g/mL.

[2] = in water at 25° C. and atmospheric pressure

| Structure (SMILES) | Solubility (wt/wt total) (Aqueous solubility; [2]) [wt %] | Solubility (wt/wt total) (Aqueous solubility; in water, marked *Theoretical) [% wt %] | other results |
| --- | --- | --- | --- |
| CCCCCCCCNC(=O)C(O)CC[S+](C)[O-] (centres unmarked) [2-Hydroxy-4-(Methylsulfinyl)-N-Octylbutanamide] | >50.0 |  |  |
| CCCCOC(=O)C(O)CCSC (centres unmarked) [Butyl 2-hydroxy-4-(methylthio)butanoate, Butyl 2-Hydroxy-4-(Methylthio)Butanoate] | 0.9 |  |  |
| CCCCCCCCCCOC(=O)C(O)CCS(C)(=O)=O (centres unmarked) [Decyl 2-Hydroxy-4-(Methylsulfonyl)Butanoate] | <0.1 |  |  |
| CCCCCCCCOC(=O)C(O)CC[S+](C)[O-] (centres unmarked) [Octyl 2-Hydroxy-4-(Methylsulfinyl)Butanoate] | >50.0 |  |  |

More lines, main results first:

| Solubility (wt/wt total) (Aqueous solubility; [2]) [wt %] | Solubility (wt/wt total) (Aqueous solubility; in water, marked *Theoretical) [% wt %] | Structure (SMILES) | other results |
| --- | --- | --- | --- |
|  | >50 | CCCCOC(=O)C(O)CC[S+](C)[O-] (centres unmarked) [Butyl 2-Hydroxy-4-(Methylsulfinyl)Butanoate] |  |
| >50.0 |  | CCCCCCOC(=O)C(O)CC[S+](C)[O-] (centres unmarked) [Hexyl 2-Hydroxy-4-(Methylsulfinyl)Butanoate] |  |
| 2.5 |  | CSCCC(O)C(=O)OC(C)C (centres unmarked) [Isopropyl 2-hydroxy-4-(methylthio)butanoate] |  |
|  | >50 | COC(=O)C(O)CC[S+](C)[O-] (centres unmarked) [Methyl 2-Hydroxy-4-(Methylsulfinyl)Butanoate] |  |
|  | >50 | CC(C)OC(=O)C(O)CC[S+](C)[O-] (centres unmarked) [iC3SO, Isopropyl 2-hydroxy-4-(methylsulfinyl)butanoate] | Boiling Point [1]: 248° ° C.; Density [1]: 1.17 g/mL; Flash Point [1]: 194° ° C.; Freezing Point [1]: <−90° ° C.; Viscosity [1]: 519 cps |
